# “Also recorded” adds a separate entry of the source. No end group written: not given here.
# Assays:
# [1] = test system: lungs of peptide-immunized mice infected with RSV; assay: Pathological staining of CD4+ and CD8+ T cells in lungs of peptide-immunized, RSV-infected mice; format: in vivo, mouse
# From the text: A recent study has generally questioned the role of CTLs in the pathogenesis of human RSV infection. Very few CD8^+ T cells in the lung infiltrates were found in human infants infected with lethal RSV. Additionally, there was little evidence for T cell cytokines in nasal secretion and few CTL can be recovered by BAL from the infants with bronchiolitis.
# HLA-A*0201 molecules = target: T1, HLA-A*0201 molecules (Homo sapiens, UniProt P04439, D140Y/D185E/D98H/E176V/E277Q/G131W/G231S/I119V/I121R/I166T/I218V/L300P/L318F/N151K/N90K/P208A/P217A/Q86G/Q94H/R138H/R169H/T345S); assay: T2 cell-stabilization assay (T2-based HLA-A*0201 binding); conditions: T2 cells, peptide 50 μg/mL; for binding affinity higher than the baseline: moderate binding affinity; for mean of fluorescence intensity (MFI) ratio, binding to HLA-A*0201: ratio to negative control (MFI=1)
# T1 construct: T2 cell (which expressing HLA-A*0201)-stabilization assay; endogenous in cells; host or cells: T2 cells
# peptide-loaded T2 cells = assay: Cytotoxicity (CTL) assay, CFSE/7-AAD, splenocytes of peptide-immunized mice against peptide-loaded T2 cells; format: in vivo, mouse; conditions: E:T ratio of 100:1; IFA vehicle background 6.5%
# Procedure: A non-radioactive assay of cell-mediated cytotoxicity was performed using green fluorescent probes 5-(6)-carboxyfluorescein diacetate succinimidyl ester (CFSE) to label target cells in combination with 7-amino-actinomycin D (7AAD), a red fluorescent probe to label dead effector and dead target cells. The assay was used to assess the presence of the RSV F protein-specific CTLs in the spleens or lungs of the immunized animals [Russell et al. (2002) “Lymphocyte-mediated cytotoxicity” Annu Rev Immunol 20:323-70]. The assay protocol was in accordance with the manufacturer's instructions (Cayman Chemical, Michigan, USA). […]
# The CFSE-labeled target cells were resuspended in the culture medium and incubated at 37° C. of CO2 incubator for 30 minutes. […] The CFSE positive cells were measured in the FL1 channel and 7-AAD stained cells were measured in the FL3 channel. The percentage of CFSE/7-AAD double positive target cells (i.e., T2 cell death) was analyzed.
# It has been reported that in primary RSV infection of BALB/c mice, CTLs generated against the F, matrix 2 (M2) and N viral proteins play a protective role in virus clearance. […] A mean background percentage of the killed target cells co-cultured with the control splenocytes isolated from the mouse previously immunized with the vehicle IFA was scored (6.5% at the E:T ratio of 100:1). […]
# [2] = test system: CD8+ lymphocytes of peptide-immunized HLA-Tg B6 mice; assay: CD8+ T cell proliferation (CFSE, cell dividing index) in peptide-immunized mice; format: in vivo, mouse; conditions: mice immunized s.c. twice with 50 μg peptide in IFA; 8 days of restimulation by the same peptide
# Procedure: (§1) HLA-A2.1 transgenic C57BL/6 mice were anesthetized with isoflurane and primed with 1×10^7 pfu/50 μL of rAd-F0, rAd-LacZ or 1×10^4 live RSV B1 via the intranasal (i.n.) route. Twenty days later, animals were boosted i.n. with the same dose of respective immunogens. For peptide-based vaccination, transgenic mice were immunized subcutaneously (s.c.) with 50 μg of individual synthetic peptides emulsified in 100 μL of incomplete Freund's adjuvant (IFA) and then boosted s.c. with the same dose of respective peptides mixed with IFA one week later. Mice were sacrificed 7 days after the boost. The splenocytes were isolated and stimulated with synthetic CD8 epitope peptides in the presence of 5-(6)-carboxyfluorescein diacetate succinimidyl ester (CFSE) for 4 and 8 days. Proliferated CD4^+ or CD8^+ T cell counts were analyzed by flow cytometry (BD FACSCalibur) using PE-labeled specific antibody against CD4 or CD8, respectively. […]
# (§2) To test the immunogenicity of these peptides, HLA-Tg B6 mice were immunized twice with individual IFA-emulsified peptide No. 3, 14, 23, or peptide 17 at day 0 and day 7. […] Proliferated CD4^+ and CD8^+ lymphocytes in response to CD8 epitope were counted by a flow cytometry analysis using specific anti-CD4 and CD8 antibodies conjugated with FITC, respectively. […]
# RSV-B1 = assay: Viral load in lungs after live RSV-B1 challenge of peptide-immunized mice; format: in vivo, mouse; conditions: two doses of peptide; challenge 10^6 pfu live RSV-B1; 4 days post challenge
# Procedure: as §1, with “The splenocytes were isolated and stimulated with synthetic CD8 epitope peptides in the presence of 5-(6)-carboxyfluorescein diacetate succinimidyl ester (CFSE) for 4 and 8 days.” left out
# In FIG. 5, mice were immunized via the intranasal route twice with the immunogen as indicated before they were intranasally challenged with 10^6 pfu of live RSV B1. Viral plaques in the lungs of the individual mice were determined 4 days post the challenge using plaque-forming assay as described in the methods. Results were expressed as the plaque number for each mouse. […] 14 and subsequently challenged with 1×10^6 pfu of live RSV-B1 viruses, as compared to 282±116 plaques detected in the lung tissues of mice immunized with the adjuvant IFA alone. […]
# [3] = test system: spleen lymphocytes of peptide-immunized HLA-Tg B6 mice; assay: IFN-γ ELISPOT, peptide-restimulated splenocytes of peptide-immunized mice; format: in vivo, mouse
# Procedure: as §1
# Following 2 hr of incubation at room temperature, the plate was washed with 200 μL of wash buffer. […] The plates were washed with water, air-dried overnight, and the spots per culture were scored using the immunospot counting reader (C.T.L. IMMUNOSPOT, […] TECHNOLOGY LTD). Results were expressed as the number of cytokine-secreting cells per 5×10^5 splenocytes seeded at culture initiation. […]
# [4] = test system: CD4+ lymphocytes of peptide-immunized HLA-Tg B6 mice; assay: CD4+ T cell proliferation (CFSE, cell dividing index) in peptide-immunized mice; format: in vivo, mouse; conditions: mice immunized s.c. twice with 50 μg peptide in IFA; 8 days of restimulation by the same peptide
# Procedure: as §1, §2
# [5] = test system: eosinophile count in peripheral blood or lung; format: in vivo, mouse; conditions: peptide-immunized mice challenged with RSV; data not shown
sequence,measurement,setting,value
AITTILAAV [compound 3],infiltrated CD4+ and CD8+ T cells in the lungs,[1],few infiltrated CD4^+ and CD8^+ T cells
"ALLSTNKAV (F193-201) [compound 8, 9-mer synthetic peptide from the F protein of RSV-B1 strain]",binding affinity higher than the baseline,HLA-A*0201 molecules,10%
"FLLGVGSAI (F163-171) [compound 6, 9-mer synthetic peptide from the F protein of RSV-B1 strain]",binding affinity higher than the baseline,HLA-A*0201 molecules,10%
KIMTSKTDV [compound 17],infiltrated CD4+ and CD8+ T cells in the lungs,[1],few infiltrated CD4^+ and CD8^+ T cells
"KLMSNNVQI (F295-303) [compound 15, 9-mer synthetic peptide from the F protein of RSV-B1 strain]","mean of fluorescence intensity (MFI) ratio, binding to HLA-A*0201",HLA-A*0201 molecules,about 1.5
"KVLDLKNYI (F214-222) [compound 13, 9-mer synthetic peptide from the F protein of RSV-B1 strain]","percentage of killed target cells (CFSE and 7-AAD double positive T2 cells), CTL response",peptide-loaded T2 cells,15.4%
same,CD8+ lymphocyte proliferation,[2],did not elicit CD8^+ lymphocyte proliferation
same,binding activity to HLA-A*0201 molecules (in words),HLA-A*0201 molecules,strong binding activity
same,binding affinity higher than the baseline,HLA-A*0201 molecules,10%
same,"protection against live RSV challenge (lung viral plaques, in words)",RSV-B1,not protected
same,"IFN-γ level (ELISPOT, in words)",[3],background level of IFN-γ
same,CD4+ cell proliferation,[4],did not manifest cell proliferation
"LLSLIAVGL (F561-569) [compound 24, 9-mer synthetic peptide from the F protein of RSV-B1 strain]","mean of fluorescence intensity (MFI) ratio, binding to HLA-A*0201",HLA-A*0201 molecules,about 1.5
"LLSTNKAVV (F194-202) [compound 9, 9-mer synthetic peptide from the F protein of RSV-B1 strain]","mean of fluorescence intensity (MFI) ratio, binding to HLA-A*0201",HLA-A*0201 molecules,about 1.5
"LMSNNVQIV (F296-304) [compound 16, 9-mer synthetic peptide from the F protein of RSV-B1 strain]","mean of fluorescence intensity (MFI) ratio, binding to HLA-A*0201",HLA-A*0201 molecules,about 1.5
"SLIAVGLLL (F563-571) [compound 25, 9-mer synthetic peptide from the F protein of RSV-B1 strain]",binding affinity higher than the baseline,HLA-A*0201 molecules,10%
"SVGNTLYYV (F474-482) [compound 18, 9-mer synthetic peptide from the F protein of RSV-B1 strain]",binding affinity higher than the baseline,HLA-A*0201 molecules,10%
"TLLLWVLLL (F5-13) [compound 1, 9-mer synthetic peptide from the F protein of RSV-B1 strain]",binding affinity higher than the baseline,HLA-A*0201 molecules,10%
VILLSLIAV [compound 23],eosinophilia (eosinophile count in peripheral blood or lung),[5],not eosinophilia
same,infiltrated CD4+ and CD8+ T cells in the lungs,[1],more infiltrated CD4^+ and CD8^+ T cells; also recorded: severe CD8^+ lymphocytic inflammation
YMLTNSELL [compound 14],eosinophilia (eosinophile count in peripheral blood or lung),[5],absence of pulmonary eosinophilia
same,infiltrated CD4+ and CD8+ T cells in the lungs,[1],few infiltrated CD4^+ and CD8^+ T cells

# From US20100172925A1, “HLA-A2-RESTRICTED T-CELL EPITOPES OF THE RESPIRATORY SYNCYTIAL VIRUS FUSION PROTEIN AS PEPTIDE-BASED VACCINES” (priority 2009, published 2010)
